From EP0418835B1, “Novel alkaline pullulanase y having alpha-amylase activity, microorganism producing the same, and process for producing the same” (KAO CORPORATION, priority 1989, dated 1991)

Assays:
Assay type in all cases: biochemical, Bacillus sp. KSM-AP1378
alkaline pullulanase Y [1] = assay: Substrate specificity (relative activity on various substrates); details: substrate concentration 1 x 10⁻² M
Experimental: (§1) 0.1 ml of enzyme solution was added to 0.9 ml of each substrate solution prepared from each buffer solution containing pullulan (final concentration in the reaction system: 0.25% w/v) and the mixture was reacted at 40°C for 30 minutes. After the reaction, reducing sugars were quantitatively determined by means of the 3,5-dinitro-salicylic acid (DNS) procedure. Specifically, 1.0 ml of a DNS reagent was added to 1.0 ml of reaction mixture and the mixture was heated at 100°C for 5 minutes to develop a color. After cooling, the mixture was diluted by adding 4.0 ml of deionized water. This solution was subjected to colorimetric quantitative analysis at a wave length of 535 nm. One unit (1 U) of enzyme activity was defined as the amount of enzyme which released 1 µmol of reducing sugar (as glucose) per minute under the standard assay conditions.
Acts on pullulan, soluble starch, and glycogen. (See Table 1) Table 1

alkaline pullulanase Y [2] = assay: Effects of metal ions and chelating agents on α-amylase activity (DNS reducing sugar assay)
Experimental: as §1, with “soluble starch” for “pullulan”, “50°C” for “40°C”, “15” for “30”, “a DNS method.” for “the 3,5-dinitro-salicylic acid (DNS) procedure.”

alkaline pullulanase Y [3] = assay: Effects of metal ions and chelating agents on pullulanase activity (DNS reducing sugar assay)
Experimental: as §1

With `OC[C@H]1O[C@H](O[C@H]2[C@H](O)[C@@H](O)C(O)O[C@@H]2CO)[C@H](O)[C@@H](O)[C@@H]1O` (mixture of isomers) [Maltose] the “Relative Activity (%)” value (alkaline pullulanase Y [1]) was 0%.

For `[Cl][Cd][Cl]` [CdCl₂], the “Residual activity (%) α-amylase Activity” value (alkaline pullulanase Y [2]; metal salt 1 mM) was 38% and the “Residual activity (%) Pullulanase Activity” value (alkaline pullulanase Y [3]; metal salt 1 mM) was 80%.

For `O=C(O)CN(CCN(CC(=O)O)CC(=O)O)CC(=O)O` [EDTA], the “Residual activity (%) Pullulanase Activity” value (alkaline pullulanase Y [3]; chelating agent 10 mM) was 77%.

`O=C(O)CN(CCOCCOCCN(CC(=O)O)CC(=O)O)CC(=O)O` [EGTA] was tested, and the “Residual activity (%) α-amylase Activity” value (alkaline pullulanase Y [2]; chelating agent 10 mM) was 18%, the “Residual activity (%) α-amylase Activity when Ca⁺² ions was again added” value (alkaline pullulanase Y [2]; chelating agent 10 mM, Ca⁺² ions added again (value in parenthesis)) was 91% and the “Residual activity (%) Pullulanase Activity” value (alkaline pullulanase Y [3]; chelating agent 10 mM) was 65%.

In the case of `OC[C@H]1O[C@@H](OC[C@H]2OC(O)[C@H](O)[C@@H](O)[C@@H]2O)[C@H](O)[C@@H](O)[C@@H]1O` (some centres unmarked) [Gentiobiose], the “Relative Activity (%)” value (alkaline pullulanase Y [1]) is reported as 0%.

In the case of `OC[C@H]1O[C@H](OC[C@H]2OC(O)[C@H](O)[C@@H](O)[C@@H]2O)[C@H](O)[C@@H](O)[C@@H]1O` (some centres unmarked) [Isomaltose], the “Relative Activity (%)” value (alkaline pullulanase Y [1]) is reported as 4%.

For `OC[C@H]1O[C@H](OC[C@H]2O[C@H](OC[C@H]3OC(O)[C@H](O)[C@@H](O)[C@@H]3O)[C@H](O)[C@@H](O)[C@@H]2O)[C@H](O)[C@@H](O)[C@@H]1O` (some centres unmarked) [Isomaltotriose], the “Relative Activity (%)” value (alkaline pullulanase Y [1]) was 11%.

In the case of `OC[C@H]1O[C@H](O[C@H]2[C@H](O)[C@@H](O)[C@@H](O[C@H]3[C@H](O)[C@@H](O)C(O)O[C@@H]3CO)O[C@@H]2CO)[C@H](O)[C@@H](O)[C@@H]1O` (some centres unmarked) [Maltotriose], the “Relative Activity (%)” value (alkaline pullulanase Y [1]) is reported as 0%.

For `[Cl][Mn][Cl]` [MnCl₂], the “Residual activity (%) α-amylase Activity” value (alkaline pullulanase Y [2]; metal salt 1 mM) was 28% and the “Residual activity (%) Pullulanase Activity” value (alkaline pullulanase Y [3]; metal salt 1 mM) was 51%.

`OC[C@H]1O[C@H](OC[C@H]2O[C@H](O[C@H]3[C@H](O)[C@@H](O)C(O)O[C@@H]3CO)[C@H](O)[C@@H](O)[C@@H]2O)[C@H](O)[C@@H](O)[C@@H]1O` (some centres unmarked) [Panose] was tested, and the “Relative Activity (%)” value (alkaline pullulanase Y [1]) was 0%.

For `[Cl][Pb][Cl]` [PbCl₂], the “Residual activity (%) α-amylase Activity” value (alkaline pullulanase Y [2]; metal salt 1 mM) was 53% and the “Residual activity (%) Pullulanase Activity” value (alkaline pullulanase Y [3]; metal salt 1 mM) was 53%.

`[Cl-].[Cl-].[Zn+2]` [ZnCl₂] was tested, and the “Residual activity (%) α-amylase Activity” value (alkaline pullulanase Y [2]; metal salt 1 mM) was 57% and the “Residual activity (%) Pullulanase Activity” value (alkaline pullulanase Y [3]; metal salt 1 mM) was 93%.

For HgCl₂, the “Residual activity (%) α-amylase Activity” value (alkaline pullulanase Y [2]; metal salt 1 mM) was 53% and the “Residual activity (%) Pullulanase Activity” value (alkaline pullulanase Y [3]; metal salt 1 mM) was 36%.
